Test [1] has as its system platelet aggregation. Kind of test: In vitro platelet aggregation inhibition (ADP-induced, PRP). It counts as cell-based, Japanese white male domestic rabbits. Particulars: Oryctolagus cuniculus, rabbit PRP, 10 μM ADP, 37° C., sample in ethanol diluted with phosphoric acid buffer pH 7.4, left at 0° C. for 4 hours, lowest concentration at which the inhibition is 50%, read-out: Anti-platelet aggregation effect IC50. Here is the method:
(ii) In vitro PlateletAAggregation Inhibition Effect
The in vitro platelet aggregation inhibition effect of the sample compounds to be tested was examined by using rabbits. That is, blood was collected from the ear vein of native Japanese white male domestic rabbits weighing 2.5 to 3.5 kg. The collected blood was 9 parts by volume per 1 part by volume of a 3.8% sodium citrate solution. The blood was centrifuged at 100 r.p.m. for 10 minutes. The upper layer portion was separated as PRP (rich in platelet blood plasma). The lower layer portion was further centrifuged at 2800 r.p.m. for 10 minutes to divide it into two layers. The upper layer portion was separated as PPP (poor in platelet blood plasma). The member of the platelet was diluted with PPP to 6 to 7×10^' /μl. After the adjustment, 25 μl of the sample compound was added to 250 μl of PRP, which was preincubated at a temperature of 37° C. for 2 minutes. […]
When the activity of the sample compounds was determined, the ethanol solution was diluted with a phosphoric acid buffer (pH 7.4). The ethanol solution diluted with the buffer was left to stand at a temperature of 0° C. for 4 hours, after which the activity of the sample compounds was determined in the same manner.
The agglutination inhibition was calculated by the following formula: [formula] […]

For test [2], the system named is ulcer formation induced by indomethacin. Kind of test: Inhibition of indomethacin-induced ulcer formation in rats (antiulcerative effect). Type of test: in vivo, Wister male rats. Particulars: Rattus norvegicus, P.O., 30 minutes before oral indomethacin 20 mg/kg, ulcer length 5 hours after indomethacin. How it is done: (i) Determination of Antiulcerative Effect
The inhibiting effect on ulcer formation induced by indomethacin was examined by using rats. Wister male rats (7 weeks old, body weight 220 g) were abstained from food for 24 hours except giving water and then subjected to experiments.
The sample compounds to be tested were dissolved in a phosphoric acid buffer (pH 7.4) containing 0.9% NaCl and the solution was orally administered to the rats. 30 minutes after the administration, indomethacin was orally administered to the rats at a dose of 20 mg/kg. 5 hours after the administration of the indomethacin, the rats were killed and the ulcer formation in the stomach was examined by determining the length of the ulcer formation portion under a stereomicroscope. From this measurement, the inhibition of ulcer formation by the sample compounds was calculated to determine the ED50 values.

The subject of test [3] is platelet aggregation. Particulars: compared with prostacyclin; cited from earlier work.

The values below come from patent US4797506A, “6-substituted prostaglandins E1 and process for producing same” (Teijin Limited, priority 1984, dated 1989).

The IC50 is the concentration that inhibits the measured activity by half. A word on the ED50: it is the dose that gives a 50% effect, or the effect in half of the subjects. Low values mean an effect at a small dose, high ones a need for a large dose.

Take `CCCCC(C)(O)C/C=C/[C@H]1[C@H](O)CC(=O)[C@@H]1CC(CCCCC(=O)OC)[N+](=O)[O-]` (stereo partly drawn): in the test on platelet aggregation [1], the IC50 is over 100 µg/mL. The same compound returned an ED50 in test [2] of 0.022 mg/kg.

As to `CCCCC[C@H](O)/C=C/[C@H]1[C@H](O)CC(=O)[C@@H]1CC(=O)CCCCC(=O)O` [6-oxoprostaglandin E1], the “platelet aggregation inhibition effect” value in the test on platelet aggregation [3] was “as strong as those of prostacyclin”.
